Reference: ChEMBL document CHEMBL1201862, “PubChem BioAssay data set” (2004)
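Where inhibition never reached the appropriate level, the endpoint shown equals the highest concentration tested. Otherwise, values were interpolated linearly from a five-concentration, 48-hour dose response in 96-well plates. Abbreviation: GI50, concentration required for 50% inhibition of growth.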 The source made the active and inactive calls. Cut-off read from the data, not from the text of the source: active = GI50 up to about 1.1 µM and inactive = higher.

Experiments:
Experiment in all cases: NCI-60 cell line screen, 48 h
[1] = tested on: OVCAR-8
[2] = tested on: Malme-3M
[3] = tested on: Hs-578T
[4] = tested on: A498
[5] = tested on: IGROV-1
[6] = tested on: HL-60
[7] = tested on: K562
[8] = tested on: U-251
[9] = tested on: ACHN
[10] = tested on: DU-145
[11] = tested on: A549
[12] = tested on: SF-268
[13] = tested on: SR
[14] = tested on: PC-3
[15] = tested on: SK-OV-3
[16] = tested on: MCF7
[17] = tested on: SNB-19
[18] = tested on: NCI-H226
[19] = tested on: NCI/ADR-RES
[20] = tested on: NCI-H460

Measured: GI50

Cc1nc2ccc(S(=O)(=O)O)cc2c(=O)n1-c1ccc(C(=O)NN2C(=O)C(Cl)C2c2ccccc2O)cc1 (stereo unspecified)
inactive: [1] > 100 µM | [2] > 100 µM | [3] > 100 µM | [4] > 100 µM | [5] > 100 µM | [6] > 100 µM | [7] > 100 µM | [8] > 100 µM | [9] > 100 µM | [10] > 100 µM | [11] > 100 µM | [12] > 100 µM | [13] > 100 µM | [14] > 100 µM | [15] > 100 µM | [16] > 100 µM | [17] > 100 µM | [18] > 100 µM | [19] > 100 µM

CC(=O)OC12c3ccccc3-c3ccccc3C1C(C(=O)O)C2(Cl)C(=O)O (stereo unspecified)
inactive: [1] > 10 µM | [2] > 10 µM | [3] > 10 µM | [4] > 10 µM | [5] > 10 µM | [6] > 10 µM | [7] > 10 µM | [8] > 10 µM | [9] > 10 µM | [10] > 10 µM | [20] > 10 µM | [12] > 10 µM | [13] > 10 µM | [14] > 10 µM | [15] > 10 µM | [16] > 10 µM | [17] > 10 µM | [18] > 10 µM | [19] > 10 µM

O=C(NN1C(=O)C(Cl)C1c1ccc(Cl)cc1)c1c(Cl)c(Cl)c(Cl)c(Cl)c1-c1nc2ccccc2[nH]1 (stereo unspecified)
inactive: [1] 17.8 µM | [2] 21.1 µM | [3] 41.5 µM | [4] 24.8 µM | [5] 3.61 µM | [6] 25.4 µM | [7] 20.1 µM | [9] 18.9 µM | [10] 16.4 µM | [20] 16.7 µM | [11] 26.4 µM | [12] 25.8 µM | [13] 16.6 µM | [14] 25.6 µM | [15] 42.7 µM | [16] 12.7 µM | [17] 36.1 µM | [18] 22.1 µM | [19] 33 µM

COc1ccc(C(=C2C(=O)OC(=O)C2=C(C)C)c2ccc(OC)cc2)cc1
inactive: [1] 47.4 µM | [2] 92 µM | [3] 95.5 µM | [4] > 100 µM | [5] 54 µM | [6] 31.2 µM | [8] 33.4 µM | [9] > 100 µM | [10] > 100 µM | [20] > 100 µM | [11] 67.6 µM | [12] > 100 µM | [13] 38.5 µM | [14] 60.4 µM | [15] > 100 µM | [16] > 100 µM | [17] 57.4 µM | [18] > 100 µM | [19] 39.5 µM
